In this assay the target is T1, Src tyrosine kinase (p60^c-src) (Homo sapiens, UniProt P12931).
T1 construct: purchased Upstate Biotechnology, Inc
In words: Src tyrosine kinase inhibition (α-screen phosphotyrosine assay). The class given is biochemical. As to conditions: 30 ng/ml p60^c-src, 100 ng/ml biotin-labeled poly(Glu:Tyr=4:1), 2 μM ATP, room temperature 10 minutes; value given only as order of magnitude; read-out: IC50 (concentration required for 50% inhibition of the enzyme activity). Here is the method:
Inhibition activity of the test compound for Src tyrosine kinase was measured by the method described as below. p60^c-src (a preparation purified partically, purchased from Upstate Biotechnology, Inc.) was usded as an enzyme. A biotin-labeled polypeptide (co-polymer of glutamic acid and tyrosine, glutamic acid:tyrosine=4:1, purchased from Nihon Schering K. K. (Japan), prepared by CIS Bio International) was used as a substrate. A solution having composition of 50 mM Tris-HCl (pH 7.5), 5 mM of MgCl2, 5 mM of MnCl2, 2 mM of dithiothreitol, 0.01% of Tween-20 was used as a buffer solution for measuring the activity of tyrosine-kinase. The amount of phosphorylation of tyrosine in the substrate after the reaction was measured by the method using phosphotyrosine recognition antibody. In the concrete, α-screen phosphotyrosine (p-tyr-100) assay kit (manufactured by PerkinElmer, Inc.) was used. Fusion™ (manufactured by PerkinElmer, Inc.) was used as a plate reader. The test compound was dissolved in dimethylsulfoxide, and diluted with the above-mentioned buffer solution for measuring the activity of tyrosine-kinase. To 5 μl of the solution of test compound was added 10 μl of a buffer solution containing 75 ng/ml of the enzyme (p60 ^c-src) and 250 ng/ml of the substrate (biotin-labeled polypeptide), and then added 10 μl of a buffer solution containing 5 μM ATP, and then the tyrosine-kinase reaction was initiated. Accordingly the tyrosine-kinase reaction was meant by a kinase reaction in a solution containing the test compound having designated concentration, 30 ng/ml of p60^c-src, 100 ng/ml of polypeptide, 2 μM of ATP, 50 mM of Tris-HCl (pH 7.5), 5 mM of MgCl2, 5 mM of MnCl2, 2 mM of dithiothreitol and 0.01% of Tween-20, and the amount of the reaction liquid was 25 μl. After the reaction was continued at room temperature for 10 minutes, the kinase reaction was terminated by adding 25 μl of a solution containing 100 mM of EDTA-2 sodium salt (Ethylene Diamine Tetraacetic Acid, disodium salt), 62.5 mM of HEPES (pH 7.4), 250 mM of NaCl, 0.1% of Bovine Serum Albumin, 10 μg/ml of streptavidine donor beads for α-screen assay, 10 μg/ml of acceptor beads binding anti-phosphotyrosin recognition antibody PY-100 for α-screen assay (Anti-phosphotyrisine(P-Tyr-100) Acceptor beads), and then the binding reaction between phosphotyrosine recognition antibody and phosphorylating tyrosine was continued at room temperature for 16 hours, and then the amount of tyrosine phosphorylation was measured by using plate reader Fusion™.
Inhibition rate (%)=100-[(count of the test compound-blank)/(control-blank)]×100 […]

SMILES strings stand for the structures. pIC50: −log10 of the molar value.

IC50 data for 4 molecules are collected here from US7842701B2, “Pyrazoloquinolone derivative and use thereof” (Takeda Pharmaceutical Company Limited, priority 2004, dated 2010).

T1 sequence (P12931 whole entry): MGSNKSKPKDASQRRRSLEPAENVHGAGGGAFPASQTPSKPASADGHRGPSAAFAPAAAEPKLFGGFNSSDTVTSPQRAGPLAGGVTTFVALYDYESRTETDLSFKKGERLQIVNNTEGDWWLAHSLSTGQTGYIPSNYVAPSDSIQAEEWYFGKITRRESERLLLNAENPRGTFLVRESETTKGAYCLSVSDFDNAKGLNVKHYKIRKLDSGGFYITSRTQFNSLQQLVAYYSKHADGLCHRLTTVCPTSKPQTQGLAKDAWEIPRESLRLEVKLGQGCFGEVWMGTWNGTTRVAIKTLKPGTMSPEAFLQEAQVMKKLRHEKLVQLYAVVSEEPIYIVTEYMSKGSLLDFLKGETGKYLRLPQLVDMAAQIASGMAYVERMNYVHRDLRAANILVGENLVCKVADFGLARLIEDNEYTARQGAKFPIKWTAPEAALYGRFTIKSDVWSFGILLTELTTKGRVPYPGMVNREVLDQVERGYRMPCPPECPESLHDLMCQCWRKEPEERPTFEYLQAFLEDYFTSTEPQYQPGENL

In the case of `Nc1c2c(=O)[nH]c3cc(NCCCN4CCOCC4)ccc3c2nn1-c1cccc(O)c1` [Example 62, 3-amino-2-(3-hydroxyphenyl)-7-{[3-(4-morpholinyl)propyl]amino}-2,5-dihydro-4H-pyrazolo[4,3-c]quinolin-4-one], the pIC50 is about 9.00.

With `Cc1ccc(O)cc1-n1nc2c(c1N)c(=O)[nH]c1ccccc12` [Example 37, 3-amino-2-(5-hydroxy-2-methylphenyl)-2,5-dihydro-4H-pyrazolo[4,3-c]quinolin-4-one], the pIC50 is about 9.00.

As for `Nc1c2c(=O)[nH]c3ccccc3c2nn1-c1cc(O)ccc1Cl` [Example 38, 3-amino-2-(2-chloro-5-hydroxyphenyl)-2,5-dihydro-4H-pyrazolo[4,3-c]quinolin-4-one], the pIC50 is about 9.00.

Turning to `Nc1c2c(=O)[nH]c3cc(NCCCN4CCC(O)CC4)ccc3c2nn1-c1cccc(O)c1` [Example 61, 3-amino-2-(3-hydroxyphenyl)-7-{[3-(4-hydroxy-1-piperidinyl)propyl]amino}-2,5-dihydro-4H-pyrazolo[4,3-c]quinolin-4-one], the pIC50 was about 9.00.
